Measured values reported in patent publication US20180200323A1, “USE OF TETRAPEPTIDE -3 GEKG OR PENTAPEPTIDE -3 GEKGF FOR TREATING DEGENERATIVE JOINT DISEASE” (priority 2017, published 2018).
Entries after “also recorded” stand apart in the source; their conditions may differ.

What was measured:
[1] = tested on: arthrodial cartilage of the knee joint; experiment: Rabbit knee cartilage defect model: observation by bare eyes and histomorphometry; format: in vivo, New Zealand white rabbits
Description: (§1) Fifteen (15) healthy adult New Zealand white rabbits were randomly divided into three (3) groups: a normal control group (Group A), a model control group (Group B) and a test group subject to intra-articular injection of a test peptide (Group C), with five (5) rabbits included in each of the groups. Fasting was conducted within four hours before surgical operations. Ketamine (10 mg/kg) and atropine (0.2 mg/kg) were injected in the muscle of each rabbit. After anesthesia took effect, each rabbit was confined to an operating table. An 8 cm-long longitudinal scission was made in the back of each knee before the skin was lifted. From the back of the knee, the articular capsule and synovial were opened. Then, the knee was bent for 90° to expose the cartilage at a lower end of the femur. Two cylindrical cutouts of 3 mm in diameter and 3 mm in depth were made. Coagulation was removed from each of the cutouts. The joint cavity was washed with a sterile saline solution. Stitches were made for each section. After the surgical operation, injection of penicillin was conducted against infection for a week. After five (5) days, each rabbit was able to eat and stand normally.
(§2) Two (2) weeks after the surgical operation, the rabbits of Group A and Group B were not treated, whereas the rabbits of Group C were subject to intra-articular injection of 250 ppm/kg of tetrapeptide-3 GEKG once for every seven (7) days, and the injection lasted for twelve (12) weeks. Articular injection of 0.5 ml of saline was executed, and then 0.2 ml of synovial liquid was collected. The articular capsule was cut and opened, synovial was removed, and an entire tibial joint was taken. Arthropathy in arthrodial cartilage was observed by bare eyes and also via surgical lens. Slices were taken, dyed by hematoxylin and eosin stain (HE Stain) and toluidine blue, and then observed in an optical microscope.

[2] = tested on: synovial liquid; experiment: Rabbit knee cartilage defect model: biochemical indicators (NO, SOD, MDA) in synovial liquid; format: in vivo, New Zealand white rabbits
Description: As used in the present invention, all of the methods for measuring SOD, NO and MDA in synovial liquid and collagen and proteoglycan in extracellular matrix of cartilage have been known and conventionally used in the art.
as §1, §2

[3] = tested on: cartilage cells of the growth plate; experiment: Cultivated cartilage cells: DNA content, collagen and proteoglycan production; format: cell-based, rabbits; conditions: 250 ppm
Description: Firstly, cartilage cells of the growth plate of the same rabbits were taken and continuously cultivated. The cultivated cells were divided into three groups. In Group I, only 250 ppm of tetrapeptide-3 GEKG was added. In Group II, only 100 ng/ml of collagen was added. In Group III, 250 ppm of tetrapeptide-3 GEKG and 100 ng/ml of collagen were added. A negative control group was also used. After new tissues of cartilage grew at a lower portion of a centrifuge tube, the new tissues were transferred to a 24-well plate for continuing cultivation, wherein the culture medium was replaced for every 2 days. During the cultivation, samples were collected after three (3), seven (7) and fourteen (14) days, and then were analyzed.
For the histological and histochemical measurements, samples were collected, and HE dying and immunochemical measurement (S-P method) were executed.
The content of DNA in the cells of cartilage was determined by the method of Hoechst 33258.
Extracellular matrix of cartilage primarily comprises collagen and proteoglycan composed of glycosaminoglycan and core protein, in addition to water. The content of the matrix and its status of the metabolism were quantitatively analyzed by determining a level of the collagen and proteoglycan in the new tissues of cartilage.
The synthesis of the collagen of the cartilage is measured by the hydroxyproline method. Because the content of hydroxyproline in the collagen was substantially constant (about 10% by weight), an amount of hydroxyproline could be used to analyze the amount of the collagen of the cartilage by using a commercial kit including the hydroxyproline reagent. The content of the collagen in the samples was calculated.

[4] = Group C vs model control group B
[5] = Group C: intra-articular injection of 250 ppm/kg once every 7 days for 12 weeks

tetrapeptide-3 GEKG
Morphosis of the arthrodial cartilage compared with Group B [1, 4]: significant improvement | Histomorphometric observation of repaired tissues ([1]; Group C, HE and toluidine blue stain, optical microscope): the repaired tissues were not substantially different from the normal tissues of the knee joint; also recorded: considerably repaired the damaged tissues of cartilage | Repair of knee joint injuries observed by bare eyes ([1]; Group C, after 12 weeks of intra-articular injection, 250 ppm/kg): the injuries were completely repaired | MDA level in synovial liquid (change in words) [2, 4]: considerably reduced | SOD level in synovial liquid (change in words) [2, 4]: considerably increased | MDA level in synovial liquid [2, 5]: 13.12 ± 2.28 c/mol · L^−1 | NO level in synovial liquid [2, 5]: 20.76 ± 2.88 c/mol · L^−1 | SOD level in synovial liquid [2, 5]: 6.60 ± 1.37 c/mol · L^−1 | Hyperosteogeny of the cells of the cartilage ([3]; samples after 3, 7 and 14 days): considerable hyperosteogeny | Content of DNA of the cells of the cartilage (Hoechst 33258) ([3]; vs control group, FIG. 1): statistically different from that of the control group | Production of collagen of extracellular matrix of cartilage (hydroxyproline method) ([3]; vs control group, FIG. 2): considerably increased | Production of proteoglycan of extracellular matrix of cartilage ([3]; vs control group, FIG. 3): considerably increased
